Measurements reported in US20160287536A1, “Composition” (THE UNIVERSITY OF NOTTINGHAM, priority 2013, published 2016).
Values joined by “and” are separate entries in the source; they are usually repeats but may differ in a detail not shown here. Equal entries are not always repeated. Where two headings read alike, the source gives them in different places. Each block holds one molecule with its values, some of them ahead of it.

Experiments:
Type in all cases: cell-based
[1] = tested on: sheep isolated rectal artery; experiment: Wire myography, sheep isolated rectal artery (SRA); details: for effect on the noradrenaline CRC: prazosin 0.4-10 nM, RX811059 30 nM; for spontaneous contraction: sheep isolated rectal vessels, 10 μM
Procedure: (§1) Sheep mesenteric tissue, from the distal sigmoid colon to the anus, was obtained from a local abattoir. The sheep tissue was delivered in a dry bag and stored at 4° C. until dissected. The bundle of sheep rectal vessels was dissected from its mesentery within four hours of arrival from the abattoir. The vascular bundle was then kept in the pre-oxygenated Krebs-Henseleit buffer solution at 4° C. until used (on the same day as a preferential method or on the following day after storage overnight). No experiments were conducted on tissue stored for more than 24 hours after dissection. The Krebs solution consisted of 118.4 mM NaCl, 4.7 mM KCl, 1.2 mM MgSO4, 1.2 mM KH2PO4, 1.25 mM CaCl2, 24.9 mM NaHCO3, and 11.1 mM glucose.
(§2) Before setting a wire myography experiment, the remaining loose connective tissue was meticulously removed from the rectal vessels. The internal diameter of sheep isolated rectal artery and vein was 450-650 μm and 500-1000 μm, respectively. Each 5-mm ring segment of the ‘clean’ vessels was then suspended between two 200-μm wire supports in an organ bath containing 20 ml Krebs-Henseleit buffer solution. The upper supporting wire was attached to an isometric force transducer, while the lower wire was fixed steadily to a clamped glass rod. The bath solution was maintained at 37° C., and continuously gassed with 95% O2 and 5% CO2. Isometric tension was continuously recorded using a PowerLab 4/25 via QUAD Bridge amplifier (ADInstruments, Inc, Australia).
(§3) After a 10-minute equilibration period, an initial tension of 8 gram weight (g wt) was gradually applied for an arterial segment and left to relax for 30 minutes. The final tension of SRA varied between 1.0 g wt and 2.8 g wt. For a venous segment, an initial tension of 1 g wt was applied and, 10 minutes later, the resting tension was finally re-adjusted to reach a tension of 0.5 g wt. Then the vein was left to relax for further 20 minutes. The final tension of SRV ranged from 0.08 to 0.25 g wt. Once the vascular segments were fully settled, the tissues were tested for contractile activity with 60 mM KCl on three occasions. The vascular contraction was allowed to reach maximum, which generally took about 1-4 minutes. Each KCl challenge was followed by two washouts of 37° C. Krebs solution and the tissues were allowed to rest for 20 minutes between the challenges. The maximum contraction (tension) produced by the third administration of 60 mM KCl was used as a reference contraction to which subsequent responses were compared. After the final (3rd) KCl challenge, the tissues were washed and left for 60 minutes before α-adrenoceptor agonist was administrated. To construct an agonist concentration-response curves (CRC), 0.3-0.4 log 10 increments of agonist solution was added e.g. at the agonist concentration of 100 nM, 200 nM, 500 nM, 1 μM, 2 μM, 5 μM, and so on. Each response was allowed to reach equilibrium or plateau before the next dose of agonist was added. The maximal response to the agonist was considered when no further increase in response occurred upon the addition of two or more consecutive doses of agonist.
(§4) In the case of the noradrenaline study, 10 μM cocaine was added into the organ bath 40 minutes prior to the administration of noradrenaline for inhibiting the uptake of noradrenaline by neural tissue within the vascular wall (re-uptake 1) (Westfall & Westfall, 2006 In Goodman & Gilman's the Pharmacological Basis of Therapeutics. eds Brunton, L. L., Lazo, J. S. & Paker, K. L. pp. 137-181. New York: McGraw Hill). Regarding KCl-induced vasoconstriction, the CRC was generated by the contractile response to 6 mM increments of KCl solution, starting from 0 mM to 60 mM.
(§5) Consecutive CRCs were generated to each agonist, separated by 60 minutes, and if there was no difference in the maximum response (Emax) and pEC50 (defined as the negative logarithm of the concentration required to produce 50% of the maximum response) then a paired CRC protocol was used throughout. […]

[2] = tested on: sheep isolated rectal vein; experiment: Wire myography, sheep isolated rectal vein (SRV); details: for rightward shift of the CRC for noradrenaline: prazosin 10 nM, RX811059 30 nM
Procedure: as §1, §2, §3, §4, §5

[3] = tested on: human isolated mesenteric vein; experiment: Wire myography, human isolated mesenteric (colonic/rectal) vein (HMV); details: for effect on potency of noradrenaline: 10 nM prazosin, 30 nM RX811059; for EC50: Homo sapiens
Excerpt: (§6) After obtaining approval from the local research ethics committee (Reference number: 05/Q2403/171) and having written consent from the patient, human mesenteric (colonic or rectal) vessels were collected from patients who underwent colectomy and/or proctectomy at the Division of Gastrointestinal Surgery, Queen's Medical Centre, University of Nottingham, UK, between August 2009 and March 2010. Patients with a history of previous abdominal/pelvic radiotherapy, and patients with endocrine tumours or concomitant intraabdominal infection were excluded from this study. In an operating room, the mesentery containing the required segment of blood vessels was dissected from the whole surgical specimen immediately after it was removed from a patient. The tissue was then kept in a 100-ml pot containing pre-oxygenated Krebs-Henseleit buffer solution maintained at 4° C. until used. No experiments were conducted on tissue stored for more than 12 hours after dissection. The Krebs solution consisted of 118.4 mM NaCl, 4.7 mM KCl, 1.2 mM MgSO4, 1.2 mM KH2PO4, 1.25 mM CaCl2, 24.9 mM NaHCO3, and 11.1 mM glucose.
Before setting a wire myography experiment, human mesenteric (colonic/rectal) vessels were meticulously dissected from the surrounding mesenteric fatty tissue. The ‘clean’ vessel was then divided into 5-mm ring segments. Generally, the internal diameter of vessels ranged between 400-1000 μm for human mesenteric artery (HMA) and 500-1200 μm for human mesenteric vein (HMV). Each 5-mm ring segment was suspended between two 200-μm wire supports in an organ bath containing 20 ml Krebs-Henseleit buffer solution. The contractile study of human mesenteric vessels was then set in the similar manner of the previous study on sheep isolated rectal vessels.
After a 20-minute equilibration period, an initial resting tension of 8 and 1 gram weight (g wt) was gradually applied to arterial and venous ring segments, respectively, and left to relax for 30 minutes. The final resting tension varied between 1.8 g wt and 3.2 g wt for HMA, and between 0.07 g wt and 0.35 g wt for HMV. Once the vascular segments were fully settled, they were tested for contractile activity with 60 mM KCl three occasions, and an agonist concentration-response curves (CRC) was then reconstructed after the vessels were left to equilibrate for 60 minutes as previously described for sheep rectal vessels. […] In the case of noradrenaline study, 10 μM cocaine was added into the organ bath 40 minutes prior to the administration of noradrenaline for inhibiting the uptake of noradrenaline by neural tissue within the vascular wall (re-uptake 1) (Westfall & Westfall, 2006 In Goodman & Gilman's the Pharmacological Basis of Therapeutics. eds Brunton, L. L., Lazo, J. S. & Paker, K. L. pp. 137-181. New York: McGraw Hill).
Although it appeared that the CRCs of several vasoconstrictors were reproducible (no significant change in maximum response and agonist potency) in human mesenteric vessels, a single CRC, paired segment approach was adopted throughout the study of human blood vessels. This was due to a desire to limit the time of tissue storage and the ease of tissue preparation. The single CRC, paired segment approach involves the generation of only one agonist CRC per tissue. The maximum response (Emax) and pEC50 (defined as the negative logarithm of the concentration required to produce 50% of the maximum response) of each vascular segment were compared to those of other vascular segments (adjacent segments from the same patient, or other segments from different patients).
If the vessel had spontaneous and periodic contraction after the administration of S(−)-BayK8644—which occurred in 70% of HMA and 80% of HMV, the effect of agonist would be considered when there was an increase in the frequency of contraction as well as a rise in the baseline of vascular tone.
The selective α1-adrenoceptor antagonist prazosin and selective α2-adrenoceptor antagonist RX811059 were used in this study. […]

[4] = tested on: human isolated mesenteric artery; experiment: Wire myography, human isolated mesenteric (colonic/rectal) artery (HMA)
Excerpt: as §6
Before setting a wire myography experiment, human mesenteric (colonic/rectal) vessels were meticulously dissected from the surrounding mesenteric fatty tissue. The ‘clean’ vessel was then divided into 5-mm ring segments. […]

[5] = Ovis aries, SRV, 10 nM prazosin / 30 nM RX811059 against noradrenaline
[6] = Ovis aries, SRV, agonist alone (control)
[7] = with 10 nM prazosin and 30 nM RX811059

Structure (SMILES): NCCc1c[nH]c2ccc(O)cc12 [5-HT, 5-hydroxytryptamine]
contractile response ([1]; SRA): concentration-dependent contractions
contractile response ([2]; SRV): concentration-dependent contractions

Structure (SMILES): [Cl-].[K+] [KCl]
contractile response ([1]; SRA): sustained concentration-dependent contraction
mean contraction to 60 mM KCl ([1]; SRA, n=119): 3.14±0.09 g wt
contractile response ([2]; SRV): concentration-dependent contractions
mean contraction to 60 mM KCl ([2]; SRV, n=128): 1.18±0.05 g wt

Structure (SMILES): COc1ccc(OC)c(C(O)C(C)N)c1 [L-erythro methoxamine]
contractile response ([1]; SRA): concentration-dependent contractions
maximum response as fraction of that to noradrenaline ([1]; SRA and SRV): one-third
arterioselectivity ([1]; sheep rectal vessels, artery vs vein): 3 fold
contractile response ([2]; SRV): concentration-dependent contractions

Structure (SMILES): CCOC1(C2=NCCN2)COc2ccccc2O1 (stereo not drawn) [RX811059, 2-(2-ethoxy-1,4-benzodioxan-2-yl)-2-imidazoline]
effect on the noradrenaline CRC ([1]; SRA): no change
Kb [2, 5]: 13.8 nM
pKB ([2]; SRV, 10 nM prazosin / 30 nM RX811059 against noradrenaline): ~7.9
further rightward shift of the CRC for noradrenaline ([2]; SRV, 30 nM RX811059 added to 10 nM prazosin): 1.6 fold
rightward shift of the CRC for noradrenaline ([2]; SRV): 3 fold
effect on potency of noradrenaline [3]: significantly reduced the potency of noradrenaline
parallel rightward shift of CRC to guanfacine ([3]; 30 nM): 2 fold

Structure (SMILES): COC(=O)C1=C(C)NC(C)=C([N+](=O)[O-])[C@H]1c1ccccc1C(F)(F)F [S(−)-BayK8644, (4S)-1,4-dihydro-2,6-dimethyl-5-nitro-4-[2-(trifluoromethyl)-phenyl]-3-pyridine carboxylic acid methyl ester]
effect on 5-HT-induced contraction ([1]; SRA and SRV, 1 μM): no effect
effect on potency of KCl ([1]; SRA, 1 μM): significantly increased the potency
observations with spontaneous contraction ([1]; SRA, 1 μM): 6%
vessels with spontaneous phasic contraction ([4]; 1 μM): 70% and 71%
effect on potency of noradrenaline ([2]; SRV, 1 μM): significantly increased the potency
vessels with spontaneous phasic contraction ([3]; 1 μM): 80% and 83%

Structure (SMILES): COc1ccc(-c2cc(=O)c3c(O)cc(O[C@@H]4O[C@H](CO[C@@H]5O[C@@H](C)[C@H](O)[C@@H](O)[C@H]5O)[C@@H](O)[C@H](O)[C@H]4O)cc3o2)cc1O [diosmin, 3′,5,7-trihydroxy-4′-methoxyflavone 7-rutinoside]
spontaneous contraction [1]: no spontaneous contraction

EC50 ([1]; Ovis aries, SRA, agonist alone): 794 nM
EC50 [2, 6]: 398 nM
EC50 ([2]; Ovis aries, SRV, in the presence of 10 nM prazosin and 30 nM RX811059): 912 nM
EC50 ([2]; Ovis aries, SRV, in the presence of 1 μM S(−)-BayK8644): 229 nM
pEC50 ([2]; SRV, agonist alone (control)): 6.58±0.07 and 6.48±0.11
EC50 ([3]; control): 2240 nM
EC50 ([3]; with 10 nM prazosin): 2450 nM
EC50 [3, 7]: 6460 nM
EC50 ([3]; with 30 nM RX811059): 5250 nM
Structure (SMILES): N=C(N)NC(=O)Cc1c(Cl)cccc1Cl [guanfacine]
Emax ([1]; Ovis aries, SRA, read-out: maximum response relative to maximum response to noradrenaline): ~20%
contractile response ([1]; SRA): concentration-dependent contractions
Emax ([2]; Ovis aries, SRV, read-out: maximum response relative to maximum response to noradrenaline): 45%
contractile response ([2]; SRV): concentration-dependent contractions
Emax ([2]; SRV, agonist alone (control)): 54.7±8.1 percentage of the contraction and 37.0±6.6 percentage of the contraction
Emax ([2]; SRV, in the presence of 10 nM prazosin and 30 nM RX811059): 31.3±4.2 percentage of the contraction
Emax ([2]; SRV, in the presence of 1 μM S(−)-BayK8644): 72.8±9.0 percentage of the contraction
Emax ([3]; control): 31.4±4.1 percentage of the contraction
Emax ([3]; with 10 nM prazosin): 18.4±4.1 percentage of the contraction
Emax [3, 7]: 20.3±8.5 percentage of the contraction
Emax ([3]; with 30 nM RX811059): 33.0±4.1 percentage of the contraction

Structure (SMILES): O=c1c(O)c(-c2cc(O)c(O)c(O)c2)oc2cc(O)cc(O)c12 [myricetin, 3,3′,4′,5,5′,7-hesahydroxyflavone]
spontaneous contraction [1]: no spontaneous contraction

EC50 [2, 6]: 389 nM
EC50 ([2]; Ovis aries, SRV, in the presence of 30 nM RX811059): 1260 nM
Structure (SMILES): NC[C@H](O)c1ccc(O)c(O)c1 [noradrenaline]
contractile response ([1]; SRA): concentration-dependent contractions
contractile response ([2]; SRV): concentration-dependent contractions
venoselectivity ([2]; sheep rectal vessels, vein vs artery): 4 fold

Structure (SMILES): COc1cc2nc(N3CCN(C(=O)c4ccco4)CC3)nc(N)c2cc1OC [prazosin]
Kb ([1]; Ovis aries, SRA and SRV, contraction to noradrenaline (summary)): 0.158 to 0.398 nM
Kb ([1]; Ovis aries, SRA, 2 nM prazosin against noradrenaline-induced contraction): 0.398 nM
effect on the noradrenaline CRC ([1]; SRA): concentration-dependent, parallel rightward shift
Kb ([4]; Homo sapiens, noradrenaline-induced contractions): 0.316 nM
Kb [2, 5]: 0.17 nM
rightward shift of the CRC for noradrenaline ([2]; SRV): 70 fold
effect on potency of noradrenaline [3]: significantly reduced the potency of noradrenaline
